{
  "source": "patent US20240400549A1",
  "about": "“COMPOUNDS AND THEIR USES FOR TREATING NEURODEGENERATIVE DISEASE” (Academia Sinica, priority 2021, published 2024)",
  "format_in_all_cases": "cell-based, mouse",
  "key": {"eGFP-C-TDP-43": {"molecular_target": "T1, eGFP-C-TDP-43 (Homo sapiens, UniProt Q13148)", "T1 construct": "expressed in transfected cells; host or cells: Neuro-2a (mouse neuroblastoma)", "experiment": "SDS-PAGE dose dependency of eGFP-C-TDP-43 degradation", "settings": "Neuro-2a cells", "experimental": "Proteins were separated using 12% Tris-glycine SDS-PAGE. Proteins were transferred onto PVDF membrane (Millipore). Blots were blocked with 5% bovine serum albumin (BSA, Sigma) in 0.1% PBST for at least 1 hour. After blocking, blots were subjected to incubation with the primary antibodies TDP-43 (C-terminal) (1:1,000, Proteintech), TDP-43 (1:1,000, Abcam), p-TDP-43 (pS409/410) (1:1,000, Cosmo Bio), GFP (1:1,000, Abcam), All (1:1,000, Invitrogen), GAPDH (1:10,000, GeneTex), or β-actin (1:10,000, GeneTex) in 2% BSA and incubated overnight at 4° C. on a shaker. After washed with PBST, the blots were further incubated with HRP-labelled secondary antibodies (1:3,000, GeneTex) at room temperature for another 1 hour. The blots were washed and developed with electrochemiluminescence (ECL, Millipore). The signals were visualized with luminescence (iBright™ FL1000 instrument, Invitrogen).\nBased on the amount of j-actin (internal control) on NC membrane, overexpression of eGFP-C-TDP-43 did induce a significant amount of C-TDP-43 species (mock control, 1.08±0.31, the black bar in FIG. 1, (B)) comparing with that in blank control of Neuro-2a cells (0.38±0.08, the white bar in FIG. 1, (B)). […]"}, "[1]": {"molecular_target": "T2, C-TDP-43 oligomeric intermediates (Homo sapiens, UniProt Q13148)", "T2 construct": "expressed in transfected cells; host or cells: Neuro-2a (mouse neuroblastoma)", "experiment": "FLIM-FRET of C-TDP-43 oligomeric intermediates in Neuro-2a cells", "experimental": "To study the EFRET of oligomeric intermediates of C-TDP-43, we seeded 2×10^6 cells/dish of Neuro-2a cells in sterile 35 mm μ-Dish and transfected with either both 0.55 μg eGFP-C-TDP-43 and 0.55 μg mCherry-C-TDP-43 or both 0.55 μg eGFP and 0.55 μg mCherry (negative control) plasmids. After 2 hours, compound I-1b was delivered to the experimental group. After 48 h incubation, the Neuro-2a cells were fixed (4% paraformaldehyde in 15 min and stored in 1×PBS buffer) and further analyzed by Q2 FastFLIM system (ISS Inc.). The Neruo2a cells were monitored and captured under oil-immersion objective observation (Nikon Plan Apo 100×/numerical aperture (NA) 1.4). […]\nThe fitting method of the FastFLIM images were described in the “Experimental Section” of a previous publication (He, R. Y et al. Adv. Sci. 2020, 7 (2), 1901165). […] The FRET efficiency of oligomeric intermediates was calculated by the formula: […]\nwherein τD is donor lifetime of eGFP only, and τDA denotes lifetime of intermediates. Then, the EFRET of each pixel to form the FRET maps as well as the histogram of EFRET (FIG. 12B) were calculated by ISS Software VistaVision. […]\nTo assess C-TDP-43 oligomeric intermediates, fluorescence lifetime imaging microscopy (FLIM) was employed to measure the efficiency of Forster resonance energy transfer (EFRET) of the fluorescence protein-tagged C-TDP-43 in the presence or absence of compound I-1b. […]"}, "[2]": {"molecular_target": "T3, eGFP-C-TDP-43 oligomeric intermediates (Homo sapiens, UniProt Q13148)", "T3 construct": "expressed in transfected cells; host or cells: Neuro-2a (mouse neuroblastoma)", "experiment": "Size-exclusion chromatography and slot blot with oligomer-specific antibody A11", "settings": "lysate of Neuro-2a cells overexpressing eGFP-C-TDP-43, 48 h"}},
  "data": [
    {"smiles": "CN(C)c1ccc(-c2nc3ccc(OCCOCCOCCNc4cccc5c4C(=O)N(C4CCC(=O)NC4=O)C5=O)cc3s2)cc1", "note": "(stereo not shown) [I-1b, 4-((2-(2-(2-((2-(4-(dimethylamino)phenyl)benzo[d]thiazol-6-yl)oxy)ethoxy)ethoxy)ethyl)amino)-2-(2,6-dioxopiperidin-3-yl)isoindoline-1,3-dione]", "values": [
      {"measurement": "degradation of eGFP-C-TDP-43, dose dependency", "setting": "eGFP-C-TDP-43", "result": "degraded eGFP-C-TDP-43 in a dose-dependent manner"},
      {"measurement": "averaged EFRET value", "setting": "[1]; Neuro-2a cells expressing 2FP—C-TDP-43, 48 h, 28.12% without compound, 3.36% negative control", "result": 22.4, "unit": "%"},
      {"measurement": "EFRET of the C-TDP-43 oligomeric intermediates (statistically, ISS VistaVision)", "setting": "[1]; Neuro-2a cells, decreased from 48.92% without compound", "result": 40.11, "unit": "%"},
      {"measurement": "A11 signal intensity in SEC fractions 9-11 (oligomeric intermediates)", "setting": "[2]", "result": "significantly reduced"}
    ]}
  ]
}
